Laboratory results from patent US10562912B2 (C&C Research Laboratories, priority 2013, dated 2020).

Legend:
Format in all cases: cell-based
[1] = test system: LNCaP; assay: Cell growth inhibition assay, prostate cancer cell line LNCaP (medium with 10 ng/mL IL-6); settings: Homo sapiens, medium supplemented with 10 ng/mL of IL-6, 10,000 cells/well
[2] = test system: MDA-MB-231; assay: Cell growth inhibition assay, breast cancer cell line MDA-MB-231; settings: Homo sapiens; MDA-MB-231 breast cancer cell line, 5,000 cells/well
[3] = molecular target: T1, STAT3 (Homo sapiens, UniProt P40763); assay: STAT3 reporter gene assay (luciferase), LNCaP stable cell line (pSTAT3-TA-luc), IL-6 stimulation
T1 construct: plasmid pSTAT3-TA-luc), which contains a stably operating STAT3 promoter; endogenous in cells
T1 sequence (P40763 whole entry): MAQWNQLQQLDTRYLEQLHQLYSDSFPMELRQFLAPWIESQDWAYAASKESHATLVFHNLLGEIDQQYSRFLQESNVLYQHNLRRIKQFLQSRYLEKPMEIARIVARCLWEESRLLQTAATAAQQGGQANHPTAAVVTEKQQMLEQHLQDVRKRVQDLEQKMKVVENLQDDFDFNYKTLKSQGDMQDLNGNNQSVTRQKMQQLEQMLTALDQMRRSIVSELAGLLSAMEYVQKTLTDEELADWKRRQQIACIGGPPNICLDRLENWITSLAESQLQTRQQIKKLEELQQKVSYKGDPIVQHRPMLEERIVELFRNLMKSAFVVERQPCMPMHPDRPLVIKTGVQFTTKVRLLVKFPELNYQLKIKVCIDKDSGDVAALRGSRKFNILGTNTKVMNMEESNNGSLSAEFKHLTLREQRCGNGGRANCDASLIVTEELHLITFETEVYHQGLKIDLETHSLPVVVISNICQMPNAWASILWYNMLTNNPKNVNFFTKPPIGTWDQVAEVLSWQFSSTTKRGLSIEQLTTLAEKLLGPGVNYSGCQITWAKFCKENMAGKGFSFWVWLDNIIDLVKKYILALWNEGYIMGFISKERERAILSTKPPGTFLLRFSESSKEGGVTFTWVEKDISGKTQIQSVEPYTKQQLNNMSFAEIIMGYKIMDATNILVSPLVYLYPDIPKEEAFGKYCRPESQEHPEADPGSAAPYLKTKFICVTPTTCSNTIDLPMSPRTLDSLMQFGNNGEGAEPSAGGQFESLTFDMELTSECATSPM
Procedure, shortened: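 LNCaP cells stably carrying pSTAT3-TA-luc, in RPMI1640 with 3% DCC-FBS, were treated with compound and then stimulated with 10 ng/mL IL-6 for 24–48 h at 37 °C. Luciferase activity was measured in lysates. A parallel plate measured viability by CellTiter-Glo, with stimulated 0.1% DMSO wells as the positive control.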

Row | Compound | IC50 [1] [µM] | IC50 [2] [µM] | IC50 [3] [µM]
1 | CS(=O)(=O)c1ccc2cc(C(=O)Nc3cc(Br)cc(-c4ccc(F)cc4F)c3)[nH]c2c1 [Example 304, N-(5-bromo-2′,4′-difluoro-[1,1′-biphenyl]-3-yl)-6-(methylsulfonyl)-1H-indole-2-carboxamide] | > 10 | 5.3 | 4
2 | CS(=O)(=O)Nc1ccc2oc(C(=O)Nc3cc(Br)cc(-c4ccc(F)cc4F)c3)cc2c1 [Example 306, N-(5-bromo-2′,4′-difluoro-[1,1′-biphenyl]-3-yl)-5-(methylsulfonamido)benzofuran-2-carboxamide] | 1.7 | 0.37 | 0.28
3 | CNS(=O)(=O)Nc1ccc2cc(C(=O)Nc3cc(Br)cc(-c4ccc(F)cc4F)c3)[nH]c2c1 [Example 307, N-(5-bromo-2′,4′-difluoro-[1,1′-biphenyl]-3-yl)-6-((N-methylsulfamoyl)amino)-1H-indole-2-carboxamide] | 4.8 | 0.84 | 1.1
4 | O=C(Nc1cc(Br)cc(-c2ccc(F)cc2F)c1)c1cc2cc(OC(F)(F)F)ccc2[nH]1 [Example 308, N-(5-bromo-2′,4′-difluoro-[1,1′-biphenyl]-3-yl)-5-(trifluoromethoxy)-1H-indole-2-carboxamide] | > 10 | 8.1 | 5.6
5 | Cc1c(C(=O)Nc2cc(Br)cc(-c3ccc(F)cc3F)c2)sc2cc(NS(C)(=O)=O)ccc12 [Example 309, N-(5-bromo-2′,4′-difluoro-[1,1′-biphenyl]-3-yl)-3-methyl-6-(methylsulfonamido)benzo[b]thiophene-2-carboxamide] | 5.9 | 1.2 | 1.5
6 | CS(=O)(=O)Nc1ccc2cc(C(=O)Nc3cc(Br)cc(-c4ccc(F)cc4F)c3)sc2c1 [Example 310, N-(5-bromo-2′,4′-difluoro-[1,1′-biphenyl]-3-yl)-6-(methylsulfonamido)benzo[b]thiophene-2-carboxamide] | 3.2 | 0.39 | 0.8
7 | Cc1c(C(=O)Nc2cc(Br)cc(-c3ccc(F)cc3F)c2)sc2ccc(NS(C)(=O)=O)cc12 [Example 311, N-(5-bromo-2′,4′-difluoro-[1,1′-biphenyl]-3-yl)-3-methyl-5-(methylsulfonamido)benzo[b]thiophene-2-carboxamide] | 6.7 | 1 | 5.7
8 | CS(=O)(=O)Nc1ccc2cc(C(=O)Nc3cc(F)cc(-c4ccc(F)cc4F)c3)[nH]c2c1 [Example 312, 6-(methylsulfonamido)-N-(2′,4′,5-trifluoro-[1,1′-biphenyl]-3-yl)-1H-indole-2-carboxamide] | 1.3 | 0.22 | 0.24
9 | CS(=O)(=O)Nc1ccc2cc(C(=O)Nc3cc(-c4ccc(F)cc4F)cc(C(F)(F)F)c3)[nH]c2c1 [Example 313, N-(2′,4′-difluoro-5-(trifluoromethyl)-[1,1′-biphenyl]-3-yl)-6-(methylsulfonamido)-1H-indole-2-carboxamide] | 3.7 | 0.14 | 3.6
10 | COc1cc(NC(=O)c2cc3ccc(NS(C)(=O)=O)cc3[nH]2)cc(-c2ccc(F)cc2F)c1 [Example 314, N-(2′,4′-difluoro-5-methoxy-[1,1′-biphenyl]-3-yl)-6-(methylsulfonamido)-1H-indole-2-carboxamide] | 3.7 | 0.37 | 4.5
11 | COc1cc(NC(=O)c2sc3cc(NS(C)(=O)=O)ccc3c2C)cc(-c2ccc(F)cc2F)c1 [Example 316, N-(2′,4′-difluoro-5-methoxy-[1,1′-biphenyl]-3-yl)-3-methyl-6-(methylsulfonamido)benzo[b]thiophene-2-carboxamide] | 7 | 4.6 | 3.6
12 | COc1cc(NC(=O)c2cc3cc(NS(C)(=O)=O)ccc3s2)cc(-c2ccc(F)cc2F)c1 [Example 317, N-(2′,4′-difluoro-5-methoxy-[1,1′-biphenyl]-3-yl)-5-(methylsulfonamido)benzo[b]thiophene-2-carboxamide] | 0.37 | 0.019 | 0.28
13 | CNC(=O)c1cc(NC(=O)c2cc3ccc(NS(C)(=O)=O)cc3[nH]2)cc(-c2ccc(F)cc2F)c1 [Example 318, N-(2′,4′-difluoro-5-(methylcarbamoyl)-[1,1′-biphenyl]-3-yl)-6-(methylsulfonamido)-1H-indole-2-carboxamide] | > 10 | > 10 | 8.1
14 | CN(C)C(=O)c1cc(NC(=O)c2cc3ccc(NS(C)(=O)=O)cc3[nH]2)cc(-c2ccc(F)cc2F)c1 [Example 319, N-(5-(dimethylcarbamoyl)-2′,4′-difluoro-[1,1′-biphenyl]-3-yl)-6-(methylsulfonamido)-1H-indole-2-carboxamide] | > 10 | > 10 | > 10
15 | CS(=O)(=O)Nc1ccc2cc(C(=O)Nc3cc(C(=O)N4CCCCC4)cc(-c4ccc(F)cc4F)c3)[nH]c2c1 [Example 320, N-(2′,4′-difluoro-5-(piperidine-1-carbonyl)-[1,1′-biphenyl]-3-yl)-6-(methylsulfonamido)-1H-indole-2-carboxamide] | > 10 | > 10 | 6.2
16 | CS(=O)(=O)Nc1ccc2cc(C(=O)Nc3cc(C(=O)N4CCOCC4)cc(-c4ccc(F)cc4F)c3)[nH]c2c1 [Example 321, N-(2′,4′-difluoro-5-(morpholine-4-carbonyl)-[1,1′-biphenyl]-3-yl)-6-(methylsulfonamido)-1H-indole-2-carboxamide] | > 10 | > 10 | 8.2
17 | CS(=O)(=O)Nc1ccc2cc(C(=O)Nc3cc(-c4ccc(F)nc4)cc(-c4ccc(F)cc4F)c3)[nH]c2c1 [Example 349, N-(2′,4′-difluoro-5-(6-fluoropyridin-3-yl)-[1,1′-biphenyl]-3-yl)-6-(methylsulfonamido)-1H-indole-2-carboxamide] | 2.3 | 0.32 | 0.48
18 | CC(C)(C)OC(=O)n1cccc1-c1cc(NC(=O)c2cc3ccc(NS(C)(=O)=O)cc3[nH]2)cc(-c2ccc(F)cc2F)c1 [Example 350, tert-butyl 2-(2′,4′-difluoro-5-(6-(methylsulfonamido)-1H-indole-2-carboxamido)-[1,1′-biphenyl]-3-yl)-1H-pyrrole-1-carboxylate] | 6.5 | 2.3 | 1.5
19 | CS(=O)(=O)Nc1ccc2cc(C(=O)Nc3cc(-c4cc[nH]n4)cc(-c4ccc(F)cc4F)c3)[nH]c2c1 [Example 351, N-(2′,4′-difluoro-5-(1H-pyrazol-3-yl)-[1,1′-biphenyl]-3-yl)-6-(methylsulfonamido)-1H-indole-2-carboxamide] | > 10 | 9.9 | 0.3
20 | CS(=O)(=O)Nc1ccc2cc(C(=O)Nc3cc(-c4ccc[nH]4)cc(-c4ccc(F)cc4F)c3)[nH]c2c1 [Example 352, N-(2′,4′-difluoro-5-(1H-pyrrol-2-yl)-[1,1′-biphenyl]-3-yl)-6-(methylsulfonamido)-1H-indole-2-carboxamide] | 7.6 | 2.4 | 0.82
21 | Cn1cccc1-c1cc(NC(=O)c2cc3ccc(NS(C)(=O)=O)cc3[nH]2)cc(-c2ccc(F)cc2F)c1 [Example 353, N-(2′,4′-difluoro-5-(1-methyl-1H-pyrrol-2-yl)-[1,1′-biphenyl]-3-yl)-6-(methylsulfonamido)-1H-indole-2-carboxamide] | 2.4 | 0.44 | 0.76
22 | CS(=O)(=O)Nc1ccc2cc(C(=O)Nc3cc(-c4cccs4)cc(-c4ccc(F)cc4F)c3)[nH]c2c1 [Example 354, N-(2′,4′-difluoro-5-(thiophen-2-yl)-[1,1′-biphenyl]-3-yl)-6-(methylsulfonamido)-1H-indole-2-carboxamide] | 5.7 | 0.71 | 0.33
23 | CS(=O)(=O)Nc1ccc2cc(C(=O)Nc3cc(-c4ccsc4)cc(-c4ccc(F)cc4F)c3)[nH]c2c1 [Example 355, N-(2′,4′-difluoro-5-(thiophen-3-yl)-[1,1′-biphenyl]-3-yl)-6-(methylsulfonamido)-1H-indole-2-carboxamide] | 1.8 | 0.28 | 0.21
24 | CS(=O)(=O)Nc1ccc2cc(C(=O)Nc3cc(-c4ccncc4)cc(-c4ccc(F)cc4F)c3)[nH]c2c1 [Example 356, N-(2′,4′-difluoro-5-(pyridin-4-yl)-[1,1′-biphenyl]-3-yl)-6-(methylsulfonamido)-1H-indole-2-carboxamide] | 9.9 | 3.3 | 3.6
25 | CS(=O)(=O)Nc1ccc2cc(C(=O)Nc3cc(-c4cccnc4)cc(-c4ccc(F)cc4F)c3)[nH]c2c1 [Example 357, N-(2′,4′-difluoro-5-(pyridin-3-yl)-[1,1′-biphenyl]-3-yl)-6-(methylsulfonamido)-1H-indole-2-carboxamide] | 6.6 | 1.2 | 1.7
26 | CS(=O)(=O)Nc1ccc2cc(C(=O)Nc3cc(-c4ccc(C(F)(F)F)nc4)cc(-c4ccc(F)cc4F)c3)[nH]c2c1 [Example 358, N-(2′,4′-difluoro-5-(6-(trifluoromethyl)pyridin-3-yl)-[1,1′-biphenyl]-3-yl)-6-(methylsulfonamido)-1H-indole-2-carboxamide] | 8 | 1.2 | 1.7
27 | CS(=O)(=O)Nc1ccc2cc(C(=O)Nc3cc(-c4ccc(C#N)nc4)cc(-c4ccc(F)cc4F)c3)[nH]c2c1 [Example 359, N-(5-(6-cyanopyridin-3-yl)-2′,4′-difluoro-[1,1′-biphenyl]-3-yl)-6-(methylsulfonamido)-1H-indole-2-carboxamide] | > 10 | 2.6 | > 10
